Patent publication US20120190059A1, “METHODS FOR OBTAINING HEPATOCYTES, HEPATIC ENDODERM CELLS AND HEPATIC PROGENITOR CELLS BY INDUCED DIFFERENTIATION” (BEIJING HUAYU[…]., LTD., priority 2009, published 2012)

System: cytochrome p450
Experiment: PROD detection of cytochrome p450 activity in differentiated hepatocyte-like cells
Settings: phenobarbital induction versus no induction, hepatocyte-like cells differentiated from hepatic progenitor cells

CCC1(c2ccccc2)C(=O)NC(=O)NC1=O [Phenobarbital]
PROD activity of the differentiated cells: could improve the PROD activity | PROD activity of the differentiated cells (listed as phenobarbital): PROD activity was enhanced
